Reference: the kinase profiling compilation of Christmann-Franck et al. (2016)

Legend:
Test in all cases: Caliper, Mobility shift assay off-chip
NTRK2 (human) = NTRK2 (human) (UniProt Q16620)
EPHB4 (human) = EPHB4 (human) (UniProt P54760)
NTRK1 (human) = NTRK1 (human) (UniProt P04629)
YES1 (human) = YES1 (human) (UniProt P07947)
CAMK2A (human) = CAMK2A (human) (UniProt Q9UQM7)
DAPK1 (human) = DAPK1 (human) (UniProt P53355)
ROCK1 (human) = ROCK1 (human) (UniProt Q13464)
IKBKE (human) = IKBKE (human) (UniProt Q14164)
MKNK1 (human) = MKNK1 (human) (UniProt Q9BUB5)
HIPK3 (human) = HIPK3 (human) (UniProt Q9H422)
Sequence of HIPK3 (human) (Q9H422 whole entry, looked up): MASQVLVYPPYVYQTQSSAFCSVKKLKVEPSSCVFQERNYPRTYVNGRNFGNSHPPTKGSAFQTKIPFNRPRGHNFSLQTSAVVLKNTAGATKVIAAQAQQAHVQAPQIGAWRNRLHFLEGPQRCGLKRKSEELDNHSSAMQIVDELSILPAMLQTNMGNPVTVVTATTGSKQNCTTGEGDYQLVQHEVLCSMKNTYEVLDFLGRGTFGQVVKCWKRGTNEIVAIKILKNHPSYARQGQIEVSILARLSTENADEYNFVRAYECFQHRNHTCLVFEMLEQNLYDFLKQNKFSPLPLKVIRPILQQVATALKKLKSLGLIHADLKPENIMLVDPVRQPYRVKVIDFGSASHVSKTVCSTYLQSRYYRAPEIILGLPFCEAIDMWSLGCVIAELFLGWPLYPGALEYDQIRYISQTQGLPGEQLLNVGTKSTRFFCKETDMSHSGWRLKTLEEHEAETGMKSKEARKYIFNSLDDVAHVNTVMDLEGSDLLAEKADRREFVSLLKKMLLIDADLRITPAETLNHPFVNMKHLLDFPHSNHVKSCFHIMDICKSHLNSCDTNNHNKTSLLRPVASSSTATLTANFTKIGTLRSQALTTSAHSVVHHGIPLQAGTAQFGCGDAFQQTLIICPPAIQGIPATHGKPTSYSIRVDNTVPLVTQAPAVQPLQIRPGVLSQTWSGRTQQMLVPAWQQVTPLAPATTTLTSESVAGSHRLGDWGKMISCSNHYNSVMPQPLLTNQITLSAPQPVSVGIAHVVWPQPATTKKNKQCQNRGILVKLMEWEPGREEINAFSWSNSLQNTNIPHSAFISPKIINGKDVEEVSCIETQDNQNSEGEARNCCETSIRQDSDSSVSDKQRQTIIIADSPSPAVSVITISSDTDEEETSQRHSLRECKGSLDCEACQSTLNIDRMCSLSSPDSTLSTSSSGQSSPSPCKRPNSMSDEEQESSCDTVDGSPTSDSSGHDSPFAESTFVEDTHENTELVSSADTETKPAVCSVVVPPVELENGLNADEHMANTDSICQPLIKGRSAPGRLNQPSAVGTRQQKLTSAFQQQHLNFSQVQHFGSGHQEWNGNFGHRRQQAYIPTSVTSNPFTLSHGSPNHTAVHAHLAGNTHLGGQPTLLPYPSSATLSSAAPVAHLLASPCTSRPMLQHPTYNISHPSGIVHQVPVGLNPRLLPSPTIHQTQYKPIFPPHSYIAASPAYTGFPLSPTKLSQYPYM

TEC (human) = TEC (human) (UniProt P42680)
PRKX (human) = PRKX (human) (UniProt P51817)
CAMK1D (human) = CAMK1D (human) (UniProt Q8IU85)
MARK2 (human) = MARK2 (human) (UniProt Q7KZI7)
ERBB2 (human) = ERBB2 (human) (UniProt P04626)
CSNK2A1 (human) = CSNK2A1 (human) (UniProt P68400)
Sequence of CSNK2A1 (human) (P68400 whole entry, looked up): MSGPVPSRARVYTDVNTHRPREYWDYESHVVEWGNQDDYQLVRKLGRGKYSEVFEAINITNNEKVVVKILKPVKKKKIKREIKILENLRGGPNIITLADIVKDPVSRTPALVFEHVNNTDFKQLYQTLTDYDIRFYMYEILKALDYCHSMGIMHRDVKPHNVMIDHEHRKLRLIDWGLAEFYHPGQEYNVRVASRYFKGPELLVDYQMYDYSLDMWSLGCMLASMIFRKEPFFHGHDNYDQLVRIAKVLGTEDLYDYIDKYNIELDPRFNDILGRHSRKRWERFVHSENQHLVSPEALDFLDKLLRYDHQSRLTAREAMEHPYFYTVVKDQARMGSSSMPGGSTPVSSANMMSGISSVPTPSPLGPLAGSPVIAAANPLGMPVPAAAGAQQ

CLK2 (human) = CLK2 (human) (UniProt P49760)
NEK1 (human) = NEK1 (human) (UniProt Q96PY6)
TYRO3 (human) = TYRO3 (human) (UniProt Q06418)
PTK6 (human) = PTK6 (human) (UniProt Q13882)
MAPK13 (human) = MAPK13 (human) (UniProt O15264)
Sequence of MAPK13 (human) (O15264 whole entry, looked up): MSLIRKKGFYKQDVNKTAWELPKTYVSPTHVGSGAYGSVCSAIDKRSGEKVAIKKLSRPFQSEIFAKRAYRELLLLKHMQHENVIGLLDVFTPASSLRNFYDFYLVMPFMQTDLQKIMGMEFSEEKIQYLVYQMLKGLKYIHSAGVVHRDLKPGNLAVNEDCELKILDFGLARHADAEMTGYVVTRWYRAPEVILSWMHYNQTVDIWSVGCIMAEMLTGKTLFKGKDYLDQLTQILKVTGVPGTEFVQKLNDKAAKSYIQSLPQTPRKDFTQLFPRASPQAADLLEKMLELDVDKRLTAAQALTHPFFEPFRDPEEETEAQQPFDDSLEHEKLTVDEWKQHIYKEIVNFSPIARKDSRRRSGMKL

PTK2 (human) = PTK2 (human) (UniProt Q05397)
PAK3 (human) = PAK3 (human) (UniProt O75914)
ALK EML4 (human) = ALK EML4 (human) (UniProt Q9HC35+Q9UM73)
WNK1 (human) = WNK1 (human) (UniProt Q9H4A3)
Sequence of WNK1 (human) (Q9H4A3 whole entry, looked up): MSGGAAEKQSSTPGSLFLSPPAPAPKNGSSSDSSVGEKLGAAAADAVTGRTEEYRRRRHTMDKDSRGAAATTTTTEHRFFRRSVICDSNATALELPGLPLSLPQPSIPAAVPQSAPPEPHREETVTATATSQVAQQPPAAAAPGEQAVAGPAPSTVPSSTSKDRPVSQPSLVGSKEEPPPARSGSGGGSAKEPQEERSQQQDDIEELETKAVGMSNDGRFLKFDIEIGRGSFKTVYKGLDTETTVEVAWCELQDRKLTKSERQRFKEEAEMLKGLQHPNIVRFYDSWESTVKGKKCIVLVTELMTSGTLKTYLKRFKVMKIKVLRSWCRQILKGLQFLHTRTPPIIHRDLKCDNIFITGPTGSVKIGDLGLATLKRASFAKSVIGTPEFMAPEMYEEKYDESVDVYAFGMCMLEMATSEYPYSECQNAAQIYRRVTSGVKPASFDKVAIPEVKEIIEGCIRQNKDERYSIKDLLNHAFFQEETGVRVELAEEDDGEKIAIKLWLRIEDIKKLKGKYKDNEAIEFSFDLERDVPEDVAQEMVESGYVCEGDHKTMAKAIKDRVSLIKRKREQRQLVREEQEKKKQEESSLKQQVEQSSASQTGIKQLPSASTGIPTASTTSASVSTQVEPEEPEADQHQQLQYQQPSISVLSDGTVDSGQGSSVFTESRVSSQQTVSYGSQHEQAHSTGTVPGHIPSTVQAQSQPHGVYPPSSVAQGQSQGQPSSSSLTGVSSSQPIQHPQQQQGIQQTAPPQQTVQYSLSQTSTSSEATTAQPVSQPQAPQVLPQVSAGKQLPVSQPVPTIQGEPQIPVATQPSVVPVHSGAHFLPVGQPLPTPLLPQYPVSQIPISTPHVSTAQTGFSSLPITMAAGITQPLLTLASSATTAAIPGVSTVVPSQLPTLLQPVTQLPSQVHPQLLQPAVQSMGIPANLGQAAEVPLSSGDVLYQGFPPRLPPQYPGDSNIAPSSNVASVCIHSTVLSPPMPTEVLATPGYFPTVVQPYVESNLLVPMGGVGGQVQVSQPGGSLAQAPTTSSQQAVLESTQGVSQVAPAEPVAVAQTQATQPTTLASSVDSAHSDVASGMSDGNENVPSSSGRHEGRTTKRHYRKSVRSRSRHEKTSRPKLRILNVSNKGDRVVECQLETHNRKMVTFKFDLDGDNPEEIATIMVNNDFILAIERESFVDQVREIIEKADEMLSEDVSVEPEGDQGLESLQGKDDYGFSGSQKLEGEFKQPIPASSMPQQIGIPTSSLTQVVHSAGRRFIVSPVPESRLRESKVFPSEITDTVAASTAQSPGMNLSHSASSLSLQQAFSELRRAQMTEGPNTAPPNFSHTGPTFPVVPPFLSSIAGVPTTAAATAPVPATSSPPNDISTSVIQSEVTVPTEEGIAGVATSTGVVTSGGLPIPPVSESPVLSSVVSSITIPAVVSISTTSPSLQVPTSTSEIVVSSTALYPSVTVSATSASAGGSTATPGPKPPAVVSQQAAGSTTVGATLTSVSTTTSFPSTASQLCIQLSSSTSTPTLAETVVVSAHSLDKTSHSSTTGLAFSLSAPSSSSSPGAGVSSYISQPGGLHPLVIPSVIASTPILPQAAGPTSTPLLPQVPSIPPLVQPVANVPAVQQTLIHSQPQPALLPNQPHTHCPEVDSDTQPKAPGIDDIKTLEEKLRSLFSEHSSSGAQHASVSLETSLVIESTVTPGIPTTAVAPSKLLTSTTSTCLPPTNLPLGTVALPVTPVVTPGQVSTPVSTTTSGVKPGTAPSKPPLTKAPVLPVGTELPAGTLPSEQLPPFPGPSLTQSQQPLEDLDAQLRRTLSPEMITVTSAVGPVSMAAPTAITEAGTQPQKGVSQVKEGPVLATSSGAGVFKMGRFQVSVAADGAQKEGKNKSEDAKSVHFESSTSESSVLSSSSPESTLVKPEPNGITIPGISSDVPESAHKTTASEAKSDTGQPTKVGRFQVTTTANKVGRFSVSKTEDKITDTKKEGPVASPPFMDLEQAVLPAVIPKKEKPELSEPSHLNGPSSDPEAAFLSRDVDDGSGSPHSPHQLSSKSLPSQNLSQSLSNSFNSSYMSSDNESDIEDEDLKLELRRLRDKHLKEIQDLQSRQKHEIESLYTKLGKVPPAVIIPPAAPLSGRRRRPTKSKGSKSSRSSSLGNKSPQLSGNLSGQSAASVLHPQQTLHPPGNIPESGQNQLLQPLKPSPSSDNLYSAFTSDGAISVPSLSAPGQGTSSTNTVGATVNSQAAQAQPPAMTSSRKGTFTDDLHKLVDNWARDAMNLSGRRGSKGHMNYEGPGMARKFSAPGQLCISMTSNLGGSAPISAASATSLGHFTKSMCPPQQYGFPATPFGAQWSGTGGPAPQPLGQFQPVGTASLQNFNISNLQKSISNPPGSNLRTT

PRKACA (human) = PRKACA (human) (UniProt P17612)
EPHA1 (human) = EPHA1 (human) (UniProt P21709)
TNK1 (human) = TNK1 (human) (UniProt Q13470)
MST4 (human) = MST4 (human) (UniProt Q9P289)
SRPK3 (human) = SRPK3 (human) (UniProt Q9UPE1)
BRSK1 (human) = BRSK1 (human) (UniProt Q8TDC3)
PAK7 (human) = PAK7 (human) (UniProt Q9P286)
TEK (human) = TEK (human) (UniProt Q02763)

Sequence of CAMK2A (human) (Q9UQM7 whole entry, looked up): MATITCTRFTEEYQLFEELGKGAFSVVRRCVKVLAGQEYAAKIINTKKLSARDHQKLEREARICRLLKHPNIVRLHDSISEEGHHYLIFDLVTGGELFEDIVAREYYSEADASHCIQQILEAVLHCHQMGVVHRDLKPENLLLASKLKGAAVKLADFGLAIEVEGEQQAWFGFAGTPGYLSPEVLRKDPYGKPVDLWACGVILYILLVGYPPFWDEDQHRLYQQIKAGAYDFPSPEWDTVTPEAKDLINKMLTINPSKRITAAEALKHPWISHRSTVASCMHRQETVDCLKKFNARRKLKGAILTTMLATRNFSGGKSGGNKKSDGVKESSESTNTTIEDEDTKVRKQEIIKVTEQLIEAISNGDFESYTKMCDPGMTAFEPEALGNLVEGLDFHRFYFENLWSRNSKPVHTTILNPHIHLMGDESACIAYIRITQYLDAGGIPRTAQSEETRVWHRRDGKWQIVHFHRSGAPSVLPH

inhibition (NTRK2 (human); compound 0.02 µM): 5.5%
inhibition (NTRK2 (human); compound 0.2 µM): 14.7%
inhibition (EPHB4 (human); compound 0.02 µM): -2.8%
inhibition (EPHB4 (human); compound 0.2 µM): -2.6%
inhibition (NTRK1 (human); compound 0.02 µM): 7%
inhibition (NTRK1 (human); compound 0.2 µM): 16.7%
inhibition (YES1 (human); compound 0.02 µM): 13.3%
inhibition (YES1 (human); compound 0.2 µM): 44.3%
inhibition (CAMK2A (human); compound 0.02 µM): 5.3%
inhibition (CAMK2A (human); compound 0.2 µM): 5.1%
inhibition (DAPK1 (human); compound 0.02 µM): 6.5%
inhibition (DAPK1 (human); compound 0.2 µM): 6.7%
inhibition (ROCK1 (human); compound 0.02 µM): 1.7%
inhibition (ROCK1 (human); compound 0.2 µM): 4.4%
inhibition (IKBKE (human); compound 0.02 µM): -3.4%
inhibition (IKBKE (human); compound 0.2 µM): -7.1%
inhibition (MKNK1 (human); compound 0.02 µM): 6.1%
inhibition (MKNK1 (human); compound 0.2 µM): 3.1%
inhibition (HIPK3 (human); compound 0.02 µM): 2.3%
inhibition (HIPK3 (human); compound 0.2 µM): 2.6%
inhibition (TEC (human); compound 0.02 µM): 4.8%
inhibition (TEC (human); compound 0.2 µM): 19.7%
inhibition (PRKX (human); compound 0.02 µM): -0.6%
inhibition (PRKX (human); compound 0.2 µM): 0.8%
inhibition (CAMK1D (human); compound 0.02 µM): -0.2%
inhibition (CAMK1D (human); compound 0.2 µM): 2.9%
inhibition (MARK2 (human); compound 0.02 µM): 9.3%
inhibition (MARK2 (human); compound 0.2 µM): 12%
inhibition (ERBB2 (human); compound 0.02 µM): 0%
inhibition (ERBB2 (human); compound 0.2 µM): -1.5%
inhibition (CSNK2A1 (human); compound 0.02 µM): -3%
inhibition (CSNK2A1 (human); compound 0.2 µM): -2.4%
inhibition (CLK2 (human); compound 0.02 µM): 6.2%
inhibition (CLK2 (human); compound 0.2 µM): 7.2%
inhibition (NEK1 (human); compound 0.02 µM): -4.7%
inhibition (NEK1 (human); compound 0.2 µM): 3.5%
inhibition (TYRO3 (human); compound 0.02 µM): 2.3%
inhibition (TYRO3 (human); compound 0.2 µM): 10.6%
inhibition (PTK6 (human); compound 0.02 µM): 2.5%
inhibition (PTK6 (human); compound 0.2 µM): 26.2%
inhibition (MAPK13 (human); compound 0.02 µM): -3.6%
inhibition (MAPK13 (human); compound 0.2 µM): -3.8%
inhibition (PTK2 (human); compound 0.02 µM): -2%
inhibition (PTK2 (human); compound 0.2 µM): 8.3%
inhibition (PAK3 (human); compound 0.02 µM): 5.7%
inhibition (PAK3 (human); compound 0.2 µM): 2.6%
inhibition (ALK EML4 (human); compound 0.02 µM): -0.3%
inhibition (ALK EML4 (human); compound 0.2 µM): 6.8%
inhibition (WNK1 (human); compound 0.02 µM): 1.6%
inhibition (WNK1 (human); compound 0.2 µM): 5.1%
inhibition (PRKACA (human); compound 0.02 µM): -6.3%
inhibition (PRKACA (human); compound 0.2 µM): -5%
inhibition (EPHA1 (human); compound 0.02 µM): -1.3%
inhibition (EPHA1 (human); compound 0.2 µM): 15.3%
inhibition (TNK1 (human); compound 0.02 µM): 1.8%
inhibition (TNK1 (human); compound 0.2 µM): 12.2%
inhibition (MST4 (human); compound 0.02 µM): -9.1%
inhibition (MST4 (human); compound 0.2 µM): -4%
inhibition (SRPK3 (human); compound 0.02 µM): -1.1%
inhibition (SRPK3 (human); compound 0.2 µM): 2.1%
inhibition (BRSK1 (human); compound 0.02 µM): 5.3%
inhibition (BRSK1 (human); compound 0.2 µM): 3.2%
inhibition (PAK7 (human); compound 0.02 µM): 9%
inhibition (PAK7 (human); compound 0.2 µM): 1.3%
inhibition (TEK (human); compound 0.02 µM): -4.6%
inhibition (TEK (human); compound 0.2 µM): 2.7%
SMILES: Cc1ccc(Nc2nccc(N(C)c3ccc4c(C)n(C)nc4c3)n2)cc1S(N)(=O)=O
